Measurements from patent US7897591B2, “Method of treating fatty liver disease” (priority 2005, dated 2011).

Legend:
[1] = test system: IL-6; experiment: ELISA for serum IL-6 levels; assay type: in vivo, mouse; conditions: HCD+MAR vs HCD-only group, P=0.001
Protocol: (§1) Control animals (n=5) received normal chow and water ad libitum. All animals in the experimental groups were fed a fat-free, high carbohydrate liquid diet (HCD) ad libitum placed in one bottle per cage as previously described (3, 62). No additional sources of nutrition or hydration were provided. The HCD liquid solution contained 20% dextrose, a commercial mixture of 2% essential and nonessential amino acids (TrophAmine, B. Braun Medical, Irvine, Calif.), 2 ml trace elements (Trace Elements Injection 4, USP—Pediatric, American Regent Shirley, N.Y.), and 5 ml multivitamins (M.V.I. Pediatric™, Mayne Pharma, Paramus, N.J.). Each liter of HCD contained 30 meq sodium, 20 meq potassium chloride, 15 meq calcium, 10 meq magnesium, and 10 mM phosphate. The bottles were replaced daily with fresh HCD solution. HCD animals (n=5) received HCD only and no additional treatment for 19 days. The HCD+MAR animals (n=15) additionally received 100 mg/kg of Marimastat™ in 0.45% methylcellulose (Sigma-Aldrich Corporation, St. Louis, Mo.) vehicle twice daily via orogastric gavage. The animals were individually weighed every third day and at sacrifice. Mouse serum IL-6 levels were determined using a commercial ELISA kit (Quantikine®, R&D systems, Inc., Minneapolis, Minn.). Optical density was read at 450 nm and analyzed with Softmax® PRO Software (Molecular Devices Corporation, Sunnyvale, Calif.).

[2] = test system: C57BL/6 mice; experiment: Liver histology (H&E, PAS, Oil Red O) in fat-free high carbohydrate diet (HCD) mouse model of hepatic steatosis; assay type: in vivo; conditions: HCD+MAR mice, 100 mg/kg twice daily, 19 days
Protocol: Experiments were performed on 5-6 week-old C57BL/6 mice (Jackson Laboratories, Bar Harbor, Me.). The animals, in groups of five, were housed in a barrier room and were acclimated to their environment for at least 72 hours prior to the initiation of each experiment. Animal protocols complied with the NIH Animal Research Advisory Committee guidelines and were approved by the Children's Hospital Boston Animal Care and Use Committee. Control animals (n=5) received normal chow and water ad libitum. All animals in the experimental groups were fed a fat-free, high carbohydrate liquid diet (HCD) ad libitum placed in one bottle per cage as previously described (3, 62). No additional sources of nutrition or hydration were provided. The HCD liquid solution contained 20% dextrose, a commercial mixture of 2% essential and nonessential amino acids (TrophAmine, B. Braun Medical, Irvine, Calif.), 2 ml trace elements (Trace Elements Injection 4, USP-Pediatric, American Regent Shirley, N.Y.), and 5 ml multivitamins (M.V.I. PediatricTM, Mayne Pharma, Paramus, N.J.). Each liter of HCD contained 30 meq sodium, 20 meq potassium chloride, 15 meq calcium, 10 meq magnesium, and 10 mM phosphate. The bottles were replaced daily with fresh HCD solution. HCD animals (n=5) received HCD only and no additional treatment for 19 days. The HCD+MAR animals (n=15) additionally received 100 mg/kg of MarimastatTM in 0.45% methylcellulose (Sigma-Aldrich Corporation, St. Louis, Mo.) vehicle twice daily via orogastric gavage. The animals were individually weighed every third day and at sacrifice. We then performed a midline laparotomy to observe, excise, and weigh the liver. Approximately one half of the liver was fixed in 10% formalin at 4° C. overnight, washed with phosphate buffered saline, and then embedded in paraffin. After cutting 5 μm sections, slides were stained at the Department of Pathology, Children's Hospital Boston with H&E to examine cellular architecture and lipid accumulation, and with periodic acid-Schiff (PAS) to identify the presence of glycogen. Another portion of the liver was collected as frozen sections, placed in embedding medium (Optimal Cutting Temperature OCT, […], Torrance, Calif.), and immersed in cold 2-methylbutane (Aldrich, Milwaukee, Wis.) on dry ice. The samples were stored at […]. Sections were stained at the Department of Pathology, Children's Hospital Boston with Oil Red O to detect fat.

[3] = test system: C57BL/6 mice; experiment: General observations: survival, stool, body weight, macroscopic liver appearance and weight; assay type: in vivo, mouse
Protocol: Experiments were performed on 5-6 week-old C57BL/6 mice (Jackson Laboratories, Bar Harbor, Me.). The animals, in groups of five, were housed in a barrier room and were acclimated to their environment for at least 72 hours prior to the initiation of each experiment. Animal protocols complied with the NIH Animal Research Advisory Committee guidelines and were approved by the Children's Hospital Boston Animal Care and Use Committee.
as §1, with “sacrifice.” for “sacrifice. Mouse serum IL-6 levels were determined using a commercial ELISA kit (Quantikine®, R&D systems, Inc., Minneapolis, Minn.). Optical density was read at 450 nm and analyzed with Softmax® PRO Software (Molecular Devices Corporation, Sunnyvale, Calif.).”
We then performed a midline laparotomy to observe, excise, and weigh the liver. Approximately one half of the liver was fixed in 10% formalin at 4° C. overnight, washed with phosphate buffered saline, and then embedded in paraffin. After cutting 5 μm sections, slides were stained at the Department of Pathology, Children's Hospital Boston with H&E to examine cellular architecture and lipid accumulation, and with periodic acid-Schiff (PAS) to identify the presence of glycogen.

`CNC(=O)[C@@H](NC(=O)[C@H](CC(C)C)[C@H](O)C(=O)NO)C(C)(C)C` [Marimastat] was tested, and the “serum IL-6 level” value [1] was “significantly higher”, the “H&E inflammatory changes / necrosis” value [2] was “occasional focal cellular infiltrates consistent with focal necrosis” and the “Oil Red O staining (fat in liver)” value [2] was “minimal presence of fat”. The “PAS staining (glycogen storage)” value [2] was “highly positive, granular, and widespread”, the “steatosis on H&E sections” value [2] was “No definitive steatosis” and the survival ([3]; 19 day protocol) was “All animals survived”. The liver weight ([3]; mouse, in vivo) was “no significant difference” and the “stool / bowel integrity” value ([3]; mouse, in vivo, 100 mg/kg) was “soft stool without gross signs of loss of bowel integrity”.
